In PubChem BioAssay AID790 (SRMLSC, 2007):
Calls of active or inactive are those of the source. The rule behind the calls is not given here.

How the values were obtained:
[1] = test system: S. cerevisiae vps1Δ mutant growth inhibition; assay: vps1Δ single mutant yeast growth suppression – S. cerevisiae, background strain comparison, dose response (AID 790)
[2] = as above; details: S. cerevisiae vps1Δ mutant growth inhibition; measured here: background strain growth inhibition

Row | Structure (SMILES) | IC50 [1] | IC50 [2] [µM]
1 | Cn1nnc2cc(C(=O)Nc3cccnc3)ccc21 | > 10 µM (inactive) | > 10
2 | Cc1nc(NC(=O)c2ccccc2)sc1-c1csc(NCc2ccccc2)n1 | 1.96 µM | > 10
3 | O=C(CCC(=O)OCC(=O)c1ccc(F)cc1)NC1CCCCC1 | > 10 µM (inactive) | > 10
4 | CCc1cc2c(=O)c(Oc3ccccc3F)c(C)oc2c(CN(C)C)c1O | > 10 µM (inactive) | > 10
5 | Nc1c(C(=O)OCC2CCCO2)c2nc3ccccc3nc2n1-c1ccc2c(c1)OCCO2 (configuration not stated) | > 10 µM (inactive) | > 10
6 | Cc1cc(C)n2nc(C(=O)NCc3ccccc3)cc2n1 | > 10 µM (inactive) | > 10
7 | Cc1ccc(C(=O)NCc2occc2C(=O)O)o1 | > 10 µM (inactive) | > 10
8 | CCOC(=O)C1=C(CSc2nc(-c3ccccc3)ccc2C#N)OC(N)=C(C#N)C1c1cccnc1 (configuration not stated) | > 10 µM (inactive) | > 10
9 | Cc1cc(C)nc(NC(=O)CSc2nn(C)c(=S)s2)n1 | > 10 µM (inactive) | > 10
10 | O=C1OCC2=C1C(c1ccc(F)cc1)Sc1ccccc1N2 (configuration not stated) | 14.4 µM | > 10
11 | O=C(O)c1ccc(N2CCCCC2)cc1 | > 10 µM (inactive) | > 10
12 | COc1ccc(C(=O)c2c(C(F)(F)F)oc3c2C(=O)c2ccccc2C3=O)cc1 | 1.99 µM | 2.32
13 | O=C(NCc1ccc2c(c1)OCO2)c1ccc(CS(=O)(=O)c2cccc(C(F)(F)F)c2)o1 | > 10 µM (inactive) | > 10
14 | Cc1cc(=O)[nH]c(SCC(=O)c2ccc(C)c(C)c2)n1 | 0.896 µM | 2.31
15 | O=C(c1ccc(Cl)cc1Cl)N1CCC(c2nc3c(nnn3Cc3ccco3)c(=O)[nH]2)CC1 | > 10 µM (inactive) | > 10
16 | Cc1ccnc(N2C(=O)c3cccc4c([N+](=O)[O-])ccc(c34)C2=O)c1 | 2.86 µM | 4.22
17 | CCOC(=O)C1=C(N)N2C(=O)C(C)SC2=C(C(=O)OC)C1c1ccccc1OC (configuration not stated) | > 10 µM (inactive) | 0.163
18 | CCn1c(=O)[nH]c2cc(C(=O)N3CCN(c4ccccc4)CC3)ccc2c1=O | > 10 µM (inactive) | > 10
19 | Cc1cccc(-c2nnc(-c3cccc(NC(=O)Cc4cccs4)c3)o2)c1 | > 10 µM (inactive) | 15.2
20 | O=C(OCn1ncc(Br)c(Br)c1=O)c1ccc(F)cc1 | 3.91 µM | 5.38
21 | CCCn1nc([N+](=O)[O-])c(C(C#N)c2nc3ccccc3s2)c(Cl)c1=O (configuration not stated) | 1.5 µM | 2.16

Row | Structure (SMILES) | IC50 [1] | IC50 [2] [µM]
22 | CCCc1cc(NCCCCO)n2c(nc3ccccc32)c1C#N | > 10 µM (inactive) | > 10
23 | COc1ccc(N2CCN(c3oc(-c4ccco4)nc3C#N)CC2)cc1 | > 10 µM (inactive) | > 10
24 | CC1CCCN(CCOCCOc2ccc(Cl)cc2Br)C1 (configuration not stated) | > 10 µM (inactive) | > 10
25 | O=C(OCn1nnc2ccccc2c1=O)c1cn(-c2ccccc2)nc1-c1cccnc1 | > 10 µM (inactive) | > 10
26 | CCCCC(=O)Nc1nc(C)c(-c2csc(Nc3ccc(Cl)cc3)n2)s1 | 6.39 µM (inactive) | 6.26
27 | Cc1cc(O)c(/C=N/Nc2ccc(Cl)cc2)c(=O)o1 | 5.43 µM (inactive) | 4.69
28 | O=C(C1COc2ccccc2O1)N1CCN(Cc2ccc3c(c2)OCO3)CC1 (configuration not stated) | > 10 µM (inactive) | > 10
29 | COc1cccc(NC(=O)c2ccc(CN3CCN(c4ccccc4)CC3)cc2)c1 | > 10 µM (inactive) | > 10
30 | O=[N+]([O-])c1ccc(N2CCN(S(=O)(=O)c3ccc(Cl)cc3)CC2)cc1NCc1cccnc1 | > 10 µM (inactive) | > 10
31 | CCCCCOc1ccc(CN2CCOCC2)cc1Cl | > 10 µM (inactive) | > 10
32 | C=C(C)COc1ccc(-c2ncncc2Oc2ccc(OC)cc2)c(O)c1 | > 10 µM (inactive) | > 10
33 | O=S(=O)(c1ccc(Cl)cc1)N1CCN(C2CCN(Cc3ccccc3)CC2)CC1 | > 10 µM (inactive) | > 10
34 | Cc1cc([N+](=O)[O-])c(-c2ccc(/C=N/n3cnnc3)o2)cc1Cl | 0.115 µM | 0.134
35 | CCOC(=O)C(C)Oc1ccc2c(C)cc(=O)oc2c1C(C)=O (configuration not stated) | > 10 µM (inactive) | > 10
36 | O=C(c1ccco1)N1CCN=C1SCc1cccnc1 | > 10 µM (inactive) | > 10
37 | CCOC(=O)Cc1c(C)c2ccc(N(CC)CC)cc2oc1=O | > 10 µM (inactive) | > 10
38 | O=C(NCC(=O)N(c1cccnc1)C(C(=O)NCc1ccco1)c1ccccc1)c1ccco1 (configuration not stated) | > 10 µM (inactive) | > 10
39 | O=C1NC2(Nc3ccccc31)C(=O)Nc1ccccc12 (configuration not stated) | > 10 µM (inactive) | > 10
40 | N#Cc1cn(-c2ccccc2)nc1-c1cc2ccccc2oc1=O | > 10 µM (inactive) | > 10
41 | Cc1cccc(OCC(=O)O/N=C(\N)Cc2ccc(Cl)cc2)c1 | > 10 µM (inactive) | 10.4
